# According to patent publication US20090136470A1, “REGULATORY T CELLS AND METHODS OF MAKING AND USING SAME” (priority 2007, published 2009):
# Where two headings read alike, the source gives them in different places.
# Assays:
# [1] = system: CD4^+CD25^−T cells; experiment: CTLA-4, CD103, CCR9 and CD25 staining of CD4 T cells stimulated with spleen APCs plus TGF-β1 and/or RA; type: cell-based, mouse; settings: TGF-β1 added to RA
# Procedure: (§1) For CD4^+CD25^− T cell isolation, spleens were removed, teased into cell-single suspensions and filtered through a 70 μm cell strainer (Fisher Scientific, USA). CD4^+CD25^−T cells were isolated by negative selection after incubation with a mix of specific biotin-conjugated mAbs (anti-CD8, CD11b, CD11ε, CD25, CD45R (B220), NK1.1, and TER119) at 1/200 dilution, and anti-biotin magnetic microbeads (25-40 μl per spleen) (Miltenyi Biotec, USA).
# APCs were isolated from spleen of C57BL/6 mice by negative selection using CD90.2 (Thy1.2) magnetic microbeads to deplete T cells (Miltenyi Biotec).
# (§2) The culture medium used for dendritic cell-T cell cultures was Iscove's modified Dulbecco medium (IMDM) (Gibco, USA) supplemented with 10% heat-inactivated FCS, 2 mM L-glutamine, 100 U/ml penicillin, 100 μg/ml streptomycin, and 5 mM β-mercaptoethanol (all Sigma, USA). […] For dendritic cell-T cell cultures, 2×10^4 dendritic cells and 1×10^5 T cells were cultured in a volume of 200 μl (96-well plates). For irradiated APC-T cell cultures, 5×10^5 APCs and 1×10^5 T cells were cultured in a volume of 200 μl in 96-well plates (2×10^6 APCs and 0.5×10^6 T cells per well in 48-well plates). […] For the study shown in FIG. 4A, after sorting of naive CD4^+ cells (CD25^−CD44^lowCD62L^+), cells were washed twice in PBS+0.1% BSA, counted and labeled with 2 μM of CFSE (Carboxyfluorescein diacetate, succinimidyl ester) (Molecular Probes, USA) at a concentration of 5−10×10^6 cells per ml in PBS-0.1% BSA.
# (§3) To block non-specific staining, the 2.4G2 anti-CD16/32 antibody was added. […] For intracellular cytokine staining, cells obtained from in vitro cultures or isolated IELs were incubated for 4-5 hours with 50 ng/ml PMA, 750 ng/ml Ionomycin (both Sigma, USA) and 10 μg/ml Brefeldin A (Invitrogen, USA) in a tissue culture incubator at 37° C.
# [2] = system: CD4 cells cultured with either MLN DCs (MDC) or splenic DCs (SDC); experiment: Retinal (RAL): TH-17 differentiation and IL-17 production in DC/T cell co-cultures; type: cell-based
# [3] = system: CD4 cells cultured with MLN DCs (MDC) or splenic DCs (SDC); experiment: Retinal (RAL): TGF-β mediated Foxp3 induction (Treg differentiation) in DC/T cell co-cultures; type: cell-based
# [4] = system: retinoic-acid orphan receptor RORg-t; experiment: Retinal (RAL): RORg-t in APC-free system; type: cell-based
# [5] = system: RAR; settings: cited from earlier work
# [6] = system: RXR; settings: cited from earlier work
# [7] = target: T1, PPAR-γ (Homo sapiens, UniProt P37231); settings: cited from earlier work
# T1 sequence (P37231 1-505): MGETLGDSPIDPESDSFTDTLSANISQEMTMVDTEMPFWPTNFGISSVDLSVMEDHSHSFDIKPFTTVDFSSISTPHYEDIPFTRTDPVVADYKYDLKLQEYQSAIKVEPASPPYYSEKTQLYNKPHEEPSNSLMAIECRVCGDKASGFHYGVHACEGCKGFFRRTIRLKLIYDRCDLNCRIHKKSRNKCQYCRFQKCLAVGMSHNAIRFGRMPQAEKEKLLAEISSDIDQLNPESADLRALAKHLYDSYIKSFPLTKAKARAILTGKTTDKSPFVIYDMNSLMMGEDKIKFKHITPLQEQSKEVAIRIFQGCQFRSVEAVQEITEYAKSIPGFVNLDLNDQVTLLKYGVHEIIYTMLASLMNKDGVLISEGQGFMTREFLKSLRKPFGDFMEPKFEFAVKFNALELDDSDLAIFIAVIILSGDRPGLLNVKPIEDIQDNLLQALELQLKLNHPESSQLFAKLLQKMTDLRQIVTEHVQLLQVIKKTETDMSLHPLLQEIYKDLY
# [8] = system: CD4^+CD25^− spleen T cells; experiment: Th-17 differentiation of CD4 T cells stimulated with dendritic cells or spleen APCs plus TGF-β and IL-6 (intracellular IL-17 staining, IL-17 ELISA); type: cell-based, mouse
# Procedure: as §1
# (§4) For dendritic cells isolation, spleen and MLN were chopped and digested by collagenase type D (Roche, USA) for 30 min at room temperature. Digested tissues were treated with 5 mM of EDTA for additional 5 min and mashed through a 70 μm cell strainer. Subsequently, CD11c^+ cells were enriched by positive selection using anti-CD11c microbeads according to the manufacturer's protocol (Miltenyi Biotec, USA). Enriched populations were stained with CD45-APC, CD 11c-PE, I-A^b-FITC and TCR β and sorted for TCRβ^−CD45^+CD11c^+I-Ab^+ by flow cytometry using a FACS-DIVA cell sorter (USA).
# as §2
# To block non-specific staining, the 2.4G2 anti-CD16/32 antibody was added.
# [9] = system: CD4^+T cells from small intestine lamina propria and spleen; experiment: Oral Listeria monocytogenes infection (and naïve mice) treated with RA or LE540: IL-17^+ and Foxp3^+ CD4 T cells; type: in vivo, mouse
# Source text: Listeria monocytogenes (strain WT LMOVA) was used. Mice were orally infected (gavage) with 5×10^8 CFU of L. monocytogenes. Mice received i.p. injections of vehicle, RA or LE540 on the same day and 2 days after infection. Mice were sacrificed 5 days post-infection for analysis.
# Every second day, in a interval of two weeks, naïve mice received gavage of either vehicle, RA or LE540.
# Liver lymphocytes were isolated using 37.5% isotonic Percoll (GE Healthcare, USA), as previously described [Y. Kinjo et al, Nat Immunol 7, 978 (2006)]. Intestinal lymphocytes were isolated and prepared as previously described [Aranda et al., J Immunol 158, 3464 (1997)]. Briefly, small and large intestines were removed and placed in chilled HBSS media containing 5% FCS. The intestines were carefully cleaned from the mesentery and flushed of fecal content. Intestines were opened longitudinally and then cut into 1 cm pieces. The intestinal tissue was transferred to a 250-ml Erlenmeyer flasks containing 25 ml of preheated HBSS complemented with 2% FCS and 1 mM DTT (Sigma, USA) and shaken at 200 rpm for 40 min at 37° C. The tissue suspension was passed through a stainless steel sieve into 50-ml conical tubes and the cells were pelleted by centrifugation at 1200 rpm for 10 min at 4° C. The cell pellet was resuspended in complete HBSS, layered over a discontinuous 40/70% Percoll gradient, and centrifuged at 2000 rpm for 30 min. Cells from the 40/70% interface were collected, washed and resuspended in complete RPMI media. These purified cells constituted the intraepithelial lymphocyte (IEL) population. To isolate the lamina propria lymphocytes (LPL), the remaining intestinal tissue in the stainless steel sieve was minced and transferred to conical tubes. The minced pieces were resuspended in 20 ml of complete RPMI containing 1 mg/ml of collagenase (Sigma, USA) and shaken at 200 rpm for 40 min at 37° C. The tissue suspension was collected and passed through a 70 μm cell strainer and the cells were pelleted by centrifugation at 1200 rpm. The cells were then resuspended and layered onto a 40/70% Percoll gradient, centrifugated and processed as described above for the IEL preparation.
# as §3
# For Foxp3 staining, no stimulation with PMA/Ionomycin was performed, with the exceptions of FIGS. 8B and 9A. In these cases, the time of incubation with PMA/Ion was reduced to 3.5 hours. Intracellular Foxp3 staining was performed as per the eBioscience's Foxp3-staining kit protocol.
# [10] = system: CD4^+CD25^−T cells; experiment: TGF-β-dependent Foxp3 induction (Treg differentiation) in CD4 T cells with dendritic cells or APCs; type: cell-based, mouse; settings: OT-II CD4 cells, OVAp, TGF-β1; LE135 1 μM, RA 100 nM
# Procedure: as §1, §4, §2
# For Foxp3 staining, no stimulation with PMA/Ionomycin was performed, with the exceptions of FIGS. 8B and 9A. […]
compound,measurement,setting,value
"TGF-β: cytokine, transforming growth factor-beta, exogenous, 5 ng/ml (R&D Systems)",RA-induced CCR9 expression,[1],partially antagonized
"CC1=C(/C=C/C(C)=C/C=C/C(C)=C/C=O)C(C)(C)CCC1 [RAL, retinal]",TH-17 differentiation,[2],able to inhibit TH-17 differentiation
same,IL-17 production from CD4 cells,[2]; cultured with either MLN DCs (MDC) or splenic DCs (SDC),suppresses IL-17 production
same,TH-17 differentiation,[2]; listed as retinal,suppressor of TH-17 differentiation
same,TGF-β mediated Foxp3 induction / Treg differentiation,[3],enhance TGF-β mediated Foxp3 induction
same,"increased induction of Foxp3, MDC versus SDC cultures",[3]; DC/T cell co-cultures,observed mainly in MDC cultures
same,TGF-β mediated Foxp3 induction / Treg differentiation,[3]; listed as retinal,enhances Treg differentiation
same,RORg-t,[4],inhibited
same,binding to RAR,[5],does not bind
same,binding to RXR,[6],shown to bind
same,binding to PPAR-γ,[7],shown to bind
CC(C)=CCCC(C)=CC=O [citral],effect of RALDH inhibition on RAL effects on TH-17 differentiation,[2]; citral added with RAL,does not reverse RAL effects
"CC1=C(/C=C/C(C)=C\C=C\C(C)=C\C(=O)O)C(C)(C)CCC1 [9-cis RA, 9-cis retinoic acid]",Th-17 differentiation by spleen dendritic cells,"[8]; added to cultures with TGF-β and IL-6, 100 nM",also inhibited the Th-17 differentiation by spleen dendritic cells
CN1c2cc3c(cc2N=C(c2ccc(C(=O)O)cc2)c2ccc4ccccc4c21)C(C)(C)CCC3(C)C [LE540],"Th-17 mucosal T cells (IL-17 staining of CD4^+T cells, small intestine lamina propria)","[9]; 5 days after oral L. monocytogenes infection, i.p. days 0 and 2, RA 300 μg/mouse, LE540 100 μg/mouse",no apparent difference compared to the controls
same,differentiation / number of mucosal Foxp3^+Treg cells (small intestine lamina propria),"[9]; Lm challenged mice, 5 days after oral infection",significantly reduce
same,spleen Foxp3^+CD4 cells,[9]; Lm infected mice (2 i.p. injections) and naïve mice (2-week gavage),No effect
CN1c2cc3c(cc2N=C(c2ccc(C(=O)O)cc2)c2ccccc21)C(C)(C)CCC3(C)C [LE135],relative inefficiency of MLN dendritic cells to mediate Th-17 differentiation,"[8]; RAR antagonist included during activation under Th-17 conditions, 1 μM",reversed
same,TGF-β-dependent Foxp3 induction by MLN dendritic cells,[10],reduced
same,effect of RAR antagonist on RAL-increased Foxp3 induction,[3]; LE135 added with RAL,reversed Foxp3 induction
